Laboratory results published in PubChem BioAssay AID254 (DTP/NCI, 2004).
Several values for one entry are separate records, joined by “and”; a condition that tells them apart may be missing. Equal entries are not always repeated. Inconclusive results and toxic doses are left out.

Tested on: L1210 leukemia iv in BDF1 mice, survival T/C
Experiment: NCI In Vivo Anticancer Drug Screen. Data for tumor model L1210 Leukemia (intravenous) in B6D2F1 (BDF1) mice
Details: endpoint: mean survival time, higher = longer survival
Experimental: The antitumor activity of compounds was measured in mice bearing transplantable tumors. Survival or tumor size were measured and the results are expressed as the measurement made in the treated group (T) divided by the measurement made in the vehicle treated control group (C). The tumor model used in this assay is L1210 Leukemia (intravenous) in B6D2F1 (BDF1) mice

CC1CCC(NC(=O)N(CCCl)N=O)CC1 (centres undefined)
T/C (dose: 5.0 mg/kg/injection, schedule: Q04DX004 (ip), vehicle: other): 124 % of control | T/C (dose: 5.4 mg/kg/injection, schedule: Q01DX001 (oral), vehicle: other): 122 % of control | T/C (dose: 8.6 mg/kg/injection, schedule: Q04DX004 (ip), vehicle: saline with Tween-80): 187 % of control | T/C (dose: 10.0 mg/kg/injection, schedule: Q04DX004 (ip), vehicle: other): 182 % of control | T/C (dose: 10.7 mg/kg/injection, schedule: Q01DX001 (ip), vehicle: saline with Tween-80): 152 % of control and 163 % of control | T/C (dose: 12.0 mg/kg/injection, schedule: Q01DX001 (ip), vehicle: other): 165 % of control | T/C (dose: 12.0 mg/kg/injection, schedule: Q01DX001 (oral), vehicle: other): 164 % of control and 187 % of control | T/C (dose: 13.0 mg/kg/injection, schedule: Q04DX004 (ip), vehicle: saline with Tween-80): 849 % of control and 850 % of control | T/C (dose: 15.0 mg/kg/injection, schedule: Q01DX001 (ip), vehicle: other): 352 % of control and 185 % of control and 332 % of control | T/C (dose: 15.0 mg/kg/injection, schedule: Q04DX004 (ip), vehicle: other): 734 % of control | T/C (dose: 16.0 mg/kg/injection, schedule: Q01DX001 (ip), vehicle: other): 102 % of control | T/C (dose: 16.0 mg/kg/injection, schedule: Q01DX001 (ip), vehicle: saline with Tween-80): 189 % of control and 248 % of control | T/C (dose: 20.0 mg/kg/injection, schedule: Q01DX001 (ip), vehicle: other): 532 % of control and 303 % of control and 326 % of control | T/C (dose: 20.0 mg/kg/injection, schedule: Q04DX004 (ip), vehicle: other): 463 % of control | T/C (dose: 20.0 mg/kg/injection, schedule: Q04DX004 (ip), vehicle: saline with Tween-80): 983 % of control | T/C (dose: 24.0 mg/kg/injection, schedule: Q01DX001 (ip), vehicle: other): 153 % of control | T/C (dose: 24.0 mg/kg/injection, schedule: Q01DX001 (ip), vehicle: saline with Tween-80): 347 % of control and 453 % of control | T/C (dose: 27.0 mg/kg/injection, schedule: Q01DX001 (oral), vehicle: other): 590 % of control and 633 % of control and 818 % of control | T/C (dose: 30.0 mg/kg/injection, schedule: Q01DX001 (ip), vehicle: other): 683 % of control | T/C (dose: 30.0 mg/kg/injection, schedule: Q04DX004 (ip), vehicle: other): 819 % of control | T/C (dose: 35.0 mg/kg/injection, schedule: Q01DX001 (ip), vehicle: other): 761 % of control | T/C (dose: 36.0 mg/kg/injection, schedule: Q01DX001 (ip), vehicle: other): 153 % of control | T/C (dose: 36.0 mg/kg/injection, schedule: Q01DX001 (ip), vehicle: saline with Tween-80): 612 % of control | T/C (dose: 36.0 mg/kg/injection, schedule: Q01DX001 (oral), vehicle: other): 751 % of control and 753 % of control and 868 % of control | T/C (dose: 40.0 mg/kg/injection, schedule: Q01DX001 (oral), vehicle: other): 633 % of control and 786 % of control and 818 % of control | T/C (dose: 45.0 mg/kg/injection, schedule: Q01DX001 (oral), vehicle: other): 574 % of control and 600 % of control | T/C (dose: 50.0 mg/kg/injection, schedule: Q01DX001 (ip), vehicle: other): 542 % of control and 661 % of control | T/C (dose: 54.0 mg/kg/injection, schedule: Q01DX001 (ip), vehicle: other): 202 % of control | T/C (dose: 54.0 mg/kg/injection, schedule: Q01DX001 (ip), vehicle: saline with Tween-80): 683 % of control and 875 % of control | T/C (dose: 54.0 mg/kg/injection, schedule: Q01DX001 (oral), vehicle: other): 810 % of control and 983 % of control and 179 % of control | T/C (dose: 55.0 mg/kg/injection, schedule: Q01DX001 (ip), vehicle: other): 500 % of control and 295 % of control | T/C (dose: 60.0 mg/kg/injection, schedule: Q01DX001 (ip), vehicle: saline with Tween-80): 557 % of control | T/C (dose: 60.0 mg/kg/injection, schedule: Q01DX001 (oral), vehicle: other): 408 % of control and 434 % of control and 185 % of control | T/C (dose: 70.0 mg/kg/injection, schedule: Q01DX001 (ip), vehicle: other): 433 % of control and 226 % of control | T/C (dose: 71.0 mg/kg/injection, schedule: Q01DX001 (ip), vehicle: saline with Tween-80): 156 % of control and 167 % of control | T/C (dose: 80.0 mg/kg/injection, schedule: Q01DX001 (ip), vehicle: other): 580 % of control and 171 % of control | T/C (dose: 81.0 mg/kg/injection, schedule: Q01DX001 (ip), vehicle: other): 378 % of control [middle of 4 runs] | T/C (dose: 81.0 mg/kg/injection, schedule: Q01DX001 (ip), vehicle: saline with Tween-80): 520 % of control and 719 % of control | T/C (dose: 90.0 mg/kg/injection, schedule: Q01DX001 (ip), vehicle: other): 511 % of control | T/C (dose: 90.0 mg/kg/injection, schedule: Q01DX001 (oral), vehicle: other): 372 % of control and 320 % of control | T/C (dose: 91.0 mg/kg/injection, schedule: Q01DX001 (oral), vehicle: other): 336 % of control and 513 % of control and 303 % of control | T/C (dose: 100.0 mg/kg/injection, schedule: Q01DX001 (ip), vehicle: other): 350 % of control | T/C (dose: 107.0 mg/kg/injection, schedule: Q01DX001 (ip), vehicle: saline with Tween-80): 201 % of control and 229 % of control | T/C (dose: 110.0 mg/kg/injection, schedule: Q01DX001 (ip), vehicle: other): 188 % of control | T/C (dose: 120.0 mg/kg/injection, schedule: Q01DX001 (ip), vehicle: other): 245 % of control | T/C (dose: 160.0 mg/kg/injection, schedule: Q01DX001 (ip), vehicle: saline with Tween-80): 392 % of control and 248 % of control | T/C (dose: 240.0 mg/kg/injection, schedule: Q01DX001 (ip), vehicle: saline with Tween-80): 556 % of control | T/C (dose: 360.0 mg/kg/injection, schedule: Q01DX001 (ip), vehicle: saline with Tween-80): 194 % of control and 263 % of control | T/C (dose: 540.0 mg/kg/injection, schedule: Q01DX001 (ip), vehicle: saline with Tween-80): 173 % of control
